Data set [1] concerns the target T1, Mushroom tyrosinase (Agaricus bisporus) (UniProt O42713+Q00024+C7FF04+C7FF05). As to the kind of experiment: Inhibition of mushroom tyrosinase at 10 uM using L-tyrosine as substrate preincubated for 10 mins followed by substrate addition measured after 20 mins by spectrophotometric method relative to control.
The target in data set [2] is T1, Mushroom tyrosinase (Agaricus bisporus). In words: Inhibition of mushroom tyrosinase at 100 uM using L-tyrosine as substrate preincubated for 10 mins followed by substrate addition measured after 20 mins by spectrophotometric method relative to control.
The test system of data set [3] is B16. As to the kind of experiment: Inhibition of melanin formation from L-DOPA in mouse B16 cells preincubated for 24 hrs followed by L-DOPA addition and subsequent incubation for 20 mins measured at 1 min interval for 10 mins by MBTH reagent based spectrophotometric method. The data set is classed as functional, cell-based.
The target in data set [4] is T2, Tyrosinase (Mus musculus, UniProt P11344).
T2 sequence (P11344 whole entry): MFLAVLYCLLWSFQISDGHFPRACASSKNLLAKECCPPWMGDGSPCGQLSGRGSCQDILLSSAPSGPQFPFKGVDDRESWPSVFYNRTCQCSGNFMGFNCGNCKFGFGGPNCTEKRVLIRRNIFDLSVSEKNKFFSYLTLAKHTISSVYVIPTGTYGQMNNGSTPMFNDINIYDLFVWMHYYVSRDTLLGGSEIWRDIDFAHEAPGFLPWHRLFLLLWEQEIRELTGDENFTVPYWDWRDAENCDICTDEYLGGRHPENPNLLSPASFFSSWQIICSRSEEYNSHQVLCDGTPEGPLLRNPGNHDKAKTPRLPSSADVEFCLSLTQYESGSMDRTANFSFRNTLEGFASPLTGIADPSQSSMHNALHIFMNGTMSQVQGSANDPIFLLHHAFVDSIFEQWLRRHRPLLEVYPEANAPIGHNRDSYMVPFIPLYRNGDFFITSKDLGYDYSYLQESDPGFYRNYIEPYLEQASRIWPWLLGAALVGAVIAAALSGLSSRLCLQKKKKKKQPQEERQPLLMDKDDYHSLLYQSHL
Description: Inhibition of tyrosinase in mouse B16 cells assessed as reduction in melanin production measured after 24 hrs

Data set [5] is described as follows: in vitro. The note with it: mouse, B16 cells.
Description: Cytotoxicity against mouse B16 cells after 24 hrs by MTT assay
Data set [6] concerns the target Mushroom tyrosinase (Agaricus bisporus, UniProt O42713+Q00024+C7FF04+C7FF05). In words: Inhibition of mushroom tyrosinase using L-tyrosine as substrate preincubated for 10 mins followed by substrate addition measured after 20 mins by spectrophotometric method.
Data set [7] concerns the target T3, Tyrosinase (Mus musculus) (UniProt P11344).
T3 sequence (whole entry): T2 sequence (P11344 whole entry)
As to the kind of experiment: Inhibition of intracellular tyrosinase activity in mouse B16 cells at 0.05 uM using L-DOPA as substrate preincubated for 24 hrs followed by substrate addition and subsequent incubation for 20 mins measured at 1 min interval for 10 mins by MBTH reagent based spectrophotometric method relative to control. The data set is classed as cell-based.

In data set [8] the target is T3, Tyrosinase (Mus musculus). As to the kind of experiment: Inhibition of intracellular tyrosinase activity in mouse B16 cells at 5 uM using L-DOPA as substrate preincubated for 24 hrs followed by substrate addition and subsequent incubation for 20 mins measured at 1 min interval for 10 mins by MBTH reagent based spectrophotometric method relative to control. The data set is classed as cell-based.

The source made the active and inactive calls. The calls are words filed in the database; no cut-off is given here.

Take `C=CC(C)(C)c1cc(C2CC(=O)c3c(cc(O)c(CC=C(C)C)c3O)O2)c(OC)cc1O` (stereo not drawn): the inhibition in data set [1] and in data set [2] was 0% each time. Moreover, the inhibition entry in data set [3] is “Active”. The compound also showed an IC50 in data set [4] of 5 µM. In addition, the MNTC at 24 h in data set [5] was found to be 50 µM.
Regarding `CC(C)=CCc1c(O)cc2c(c1O)C(=O)CC(c1ccc(O)c(O)c1CC=C(C)C)O2` (stereo not drawn), the inhibition in data set [1] is 2.84%; in data set [2] it was 9.4%. Besides, the inhibition entry in data set [3] is “Active”. Also, in data set [4], the IC50 was found to be 0.75 µM. Further, the MNTC at 24 h in data set [5] stood at 1 µM.
Take `C=CC(C)(C)c1cc(C2CC(=O)c3c(O)cc(O)c(CC=C(C)C)c3O2)c(OC)cc1O` (stereo not drawn): the figures for the inhibition in data set [1] and in data set [2] were 21.5% and 63.8%, respectively. In data set [3], the inhibition entry is “Active”. The IC50 in data set [6] amounted to 49.8 µM; in data set [4], 5 µM. Further, the MNTC at 24 h in data set [5] was determined as 5 µM.
Turning to `C=CC(C)(C)c1cc(C2CC(=O)c3c(O)cc(O)c(CC=C(C)C)c3O2)c(O)cc1O` (stereo not drawn), the inhibition in data set [1] came out at 90.5%; in data set [2] it was 95%; in data set [7], 20.6%; in data set [8], 31.8%. The IC50 is 2.32 µM in data set [6] and 1 µM in data set [4]. Also, in data set [5], the MNTC at 24 h turned out to be 10 µM.

The values above are taken from ChEMBL document CHEMBL4007462, “Chemical and bioactivity of flavanones obtained from roots of Dalea pazensis Rusby” (Bioorg Med Chem Lett, 2017).
